Laboratory results reported in patent publication US12492193B2, “Pyrazole derivatives for the treatment of cystic fibrosis” (Fondazione Istituto Italiano Di Tecnologia, priority 2017, dated 2025).

Molecular target: T1, mutant CFTR (Homo sapiens, UniProt P13569, DEL508-508)
T1 construct: expressed in transfected cells
Test: Fluorescence (HS-YFP) assay for CFTR activity, corrector assay
Format: cell-based
Settings: CFBE41o- and FRT cells with stable expression of mutant CFTR, 24 h compound treatment
Protocol: Fluorescence Assay for CFTR Activity
Mutant CFTR activity was determined with the functional assay based on the halide-sensitive yellow fluorescent protein, HS-YFP (Galietta et al., FEBS Lett 499: 220-224, 2001). CFBE41o- and FRT cells with stable expression of mutant CFTR and HS-YFP were plated on clear-bottom 96-well black microplates (Code 3603, Corning Life Sciences) at a density of 50,000 cells/well and kept at 37° C. in 5% CO2 for 24 hours. For the corrector assay, cells were treated for further 24 hours with test compounds, vehicle (DMSO), or the positive control VX-809. After treatment, the culture medium was removed and cells in each well were stimulated for 30 min at 37° C. with 60 μL PBS (containing 137 mM NaCl, 2.7 mM KCl, 8.1 mM Na2HPO4, 1.5 mM KH2PO4, 1 mM CaCl2, and 0.5 mM MgCl2) plus forskolin (20 μM) and genistein (50 μM).
For determination of potentiator activity on G551D-CFTR or G1349D-CFTR, cells were directly stimulated with forskolin plus test compound without previous incubation at low temperature. At the time of assay, microplates carrying CFBE41o- or FRT cells were transferred to microplate readers (BMG Labtech) equipped with high-quality excitation (HQ500/20X: 500±10 nm) and emission (HQ535/30M: 535±15 nm) filters for YFP (Chroma Technology). The assay consisted of a continuous 14 s fluorescence reading with 2 s before and 12 s after injection of an iodide-containing solution (165 μL of a modified PBS containing I^− instead of Cl^−; final I^− concentration in the well: 100 mM). Data were normalized to the initial background-subtracted fluorescence. Enhanced CFTR activity, induced by correctors and/or potentiators, results in accelerated I^− influx that in turn causes faster HS-YFP quenching (Pedemonte et al., Mol Pharmacol 68:1736-1746, 2005; Pedemonte et al., J Clin Invest 115:2564-2571, […]). To determine fluorescence quenching rate associated with I^− influx, the […] 10 s of data for each well were fitted with an exponential function to extrapolate initial slope (dF/dt).
EC50 obtained are illustrated in table 1 wherein +: EC50>2 μM; ++: 1.0 μM<EC50<2 μM; +++: EC50<1 μM.

T1 sequence (P13569 with tags, fused parts or gaps DEL508-508): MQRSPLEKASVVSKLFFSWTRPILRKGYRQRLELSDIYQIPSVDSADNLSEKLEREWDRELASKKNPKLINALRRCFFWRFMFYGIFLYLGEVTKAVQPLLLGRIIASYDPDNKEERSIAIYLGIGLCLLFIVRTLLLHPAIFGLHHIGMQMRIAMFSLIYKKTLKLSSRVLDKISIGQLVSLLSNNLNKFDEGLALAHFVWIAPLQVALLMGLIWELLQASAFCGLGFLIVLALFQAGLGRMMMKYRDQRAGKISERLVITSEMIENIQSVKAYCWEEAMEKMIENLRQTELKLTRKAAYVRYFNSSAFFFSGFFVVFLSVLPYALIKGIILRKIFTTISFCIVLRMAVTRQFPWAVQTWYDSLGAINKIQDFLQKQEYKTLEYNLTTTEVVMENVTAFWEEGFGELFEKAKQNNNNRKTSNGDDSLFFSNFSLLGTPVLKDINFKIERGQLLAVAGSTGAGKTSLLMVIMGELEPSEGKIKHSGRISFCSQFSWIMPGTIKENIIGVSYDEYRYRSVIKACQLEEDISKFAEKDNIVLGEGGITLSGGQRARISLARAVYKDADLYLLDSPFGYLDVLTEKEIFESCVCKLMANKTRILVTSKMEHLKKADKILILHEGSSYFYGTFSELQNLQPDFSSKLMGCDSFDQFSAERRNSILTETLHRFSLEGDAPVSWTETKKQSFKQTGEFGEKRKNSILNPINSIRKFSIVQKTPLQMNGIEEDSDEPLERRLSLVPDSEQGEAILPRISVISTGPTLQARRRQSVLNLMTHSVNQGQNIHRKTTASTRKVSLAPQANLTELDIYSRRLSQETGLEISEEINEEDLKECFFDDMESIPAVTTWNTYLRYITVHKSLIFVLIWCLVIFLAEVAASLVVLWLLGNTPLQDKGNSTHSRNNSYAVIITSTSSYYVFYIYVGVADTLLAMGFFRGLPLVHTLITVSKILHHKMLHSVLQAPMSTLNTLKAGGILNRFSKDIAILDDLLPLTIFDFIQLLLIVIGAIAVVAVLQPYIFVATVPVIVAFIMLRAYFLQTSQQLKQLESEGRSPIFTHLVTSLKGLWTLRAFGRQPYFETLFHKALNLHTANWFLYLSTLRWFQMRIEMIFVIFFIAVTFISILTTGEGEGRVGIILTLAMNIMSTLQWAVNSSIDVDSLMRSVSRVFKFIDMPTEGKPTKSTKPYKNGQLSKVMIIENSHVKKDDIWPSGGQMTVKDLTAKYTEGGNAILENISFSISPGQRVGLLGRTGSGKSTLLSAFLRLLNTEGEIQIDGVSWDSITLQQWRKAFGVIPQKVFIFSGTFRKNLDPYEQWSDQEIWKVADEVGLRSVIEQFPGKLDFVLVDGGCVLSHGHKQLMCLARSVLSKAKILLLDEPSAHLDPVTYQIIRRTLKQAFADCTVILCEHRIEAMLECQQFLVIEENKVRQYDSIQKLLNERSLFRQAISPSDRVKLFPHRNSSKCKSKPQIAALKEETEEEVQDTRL

`Cc1cc(C(=O)O)n(-c2cccc(C(=O)N(C)c3ccc4c(c3)OCO4)c2)n1` [compound 065, 2-[3-[1,3-benzodioxol-5-yl(methyl)carbamoyl]phenyl]-5-methyl-pyrazole-3-carboxylic acid] showed an EC50 greater than 2 µM.

`CN(C(=O)c1cccc(-n2nc(C(F)(F)F)c(Cl)c2COc2ccc(C(=O)OC(C)(C)C)cc2)c1)c1ccc2c(c1)OC(F)(F)O2` [compound 175, Tert-butyl 4-[[4-chloro-2-[3-[(2,2-difluoro-1,3-benzodioxol-5-yl)-methyl-carbamoyl]phenyl]-5-(trifluoromethyl)pyrazol-3-yl]methoxy]benzoate] gave an EC50 of less than 1 µM.

Work on `Cc1cc2c(cc1N(C)C(=O)c1cccc(-n3nc(C)c(Cl)c3C)c1)OCO2` [compound 042, 3-(4-chloro-3,5-dimethyl-pyrazol-1-yl)-N-methyl-N-(6-methyl-1,3-benzodioxol-5-yl)benzamide] yielded an EC50 of 1 to 2 µM.

In the case of `Cc1nn(-c2cccc(C(=O)N(C)c3ccc4c(c3)OCO4)c2)c(C2CC2)c1Cl` [compound 094, N-(1,3-Benzodioxol-5-yl)-3-(4-chloro-5-cyclopropyl-3-methyl-pyrazol-1-yl)-N-methyl-benzamide], the EC50 is reported as less than 1 µM.

For `CN(C(=O)c1cccc(-n2nc(C(F)(F)F)cc2OCc2ccc(C(=O)OC(C)(C)C)cc2)c1)c1ccc2c(c1)OC(F)(F)O2` [compound 191, Tert-butyl 4-[[2-[3-[(2,2-difluoro-1,3-benzodioxol-5-yl)-methyl-carbamoyl]phenyl]-5-(trifluoromethyl)pyrazol-3-yl]oxymethyl]benzoate], the EC50 was less than 1 µM.

`CN(C(=O)c1cccc(-n2nc(C(F)(F)F)c(Cl)c2COc2ccc(C(=O)O)cc2)c1)c1ccc2c(c1)OCO2` [compound 151, 4-[[2-[3-[1,3-benzodioxol-5-yl(methyl)carbamoyl]phenyl]-4-chloro-5-(trifluoromethyl)pyrazol-3-yl]methoxy]benzoic acid] showed an EC50 of less than 1 µM.

`Cc1nn(-c2cccc(C(=O)N(C)c3ccc4c(c3)OCO4)c2)c(C)c1C(=O)NCCO` [compound 059, 1-[3-[1,3-Benzodioxol-5-yl(methyl)carbamoyl]phenyl]-N-(2-hydroxyethyl)-3,5-dimethyl-pyrazole-4-carboxamide] showed an EC50 greater than 2 µM.

`COc1ccc(NC(=O)c2cccc(-n3nc(C)c(Cl)c3C)c2)cc1OC` [Int-013, 3-(4-Chloro-3,5-dimethyl-pyrazol-1-yl)-N-(3,4-dimethoxyphenyl)benzamide] showed an EC50 greater than 2 µM.

`Cc1nnc(-c2c(Cl)c(C)nn2-c2cccc(C(=O)N(C)c3ccc4c(c3)OCO4)c2)o1` [compound 129, N-(1,3-Benzodioxol-5-yl)-3-[4-chloro-3-methyl-5-(5-methyl-1,3,4-oxadiazol-2-yl)pyrazol-1-yl]-N-methyl-benzamide] gave an EC50 of less than 1 µM.

For `Cc1nc2ccc(N(C)C(=O)c3cccc(-n4nc(C(F)(F)F)c(Cl)c4OCc4ccc(C(=O)OC(C)(C)C)cc4)c3)cc2o1` [compound 190, Tert-butyl 4-[[4-chloro-2-[3-[methyl-(2-methyl-1,3-benzoxazol-6-yl)carbamoyl]phenyl]-5-(trifluoromethyl)pyrazol-3-yl]oxymethyl]benzoate], the EC50 was less than 1 µM.

`Cc1nn(-c2cccc(C(=O)Nc3ccc4c(c3)OC(F)(F)O4)c2)c(C)c1Cl` [Int-006, 3-(4-Chloro-3,5-dimethyl-pyrazol-1-yl)-N-(2,2-difluoro-1,3-benzodioxol-5-yl)benzamide] was tested, and the EC50 was greater than 2 µM.

`Cc1c(Cl)c(C(F)(F)F)nn1-c1cccc(C(=O)Nc2cc3c(cc2Cl)OCO3)c1` [compound 127, N-(6-Chloro-1,3-benzodioxol-5-yl)-3-[4-chloro-5-methyl-3-(trifluoromethyl)pyrazol-1-yl]benzamide] gave an EC50 greater than 2 µM.

`Cc1c(Cl)c(C(F)(F)F)nn1-c1cccc(C(=O)N(C)c2cc3c(cc2Cl)OCO3)c1` [compound 106, N-(6-Chloro-1,3-benzodioxol-5-yl)-3-[4-chloro-5-methyl-3-(trifluoromethyl)pyrazol-1-yl]-N-methyl-benzamide] showed an EC50 of less than 1 µM.

In the case of `Cc1nn(-c2cccc(C(=O)N(C)c3ccc4c(c3)OCCO4)c2)c(C)c1C(C)(C)C` [compound 037, 3-(4-tert-Butyl-3,5-dimethyl-pyrazol-1-yl)-N-(2,3-dihydro-1,4-benzodioxin-6-yl)-N-methyl-benzamide], the EC50 is reported as 1 to 2 µM.

Work on `CCOC(=O)c1cc(C(F)(F)F)nn1-c1cccc(C(=O)N(C)c2ccc3c(c2)OCO3)c1` [compound 130, Ethyl 2-[3-[1,3-benzodioxol-5-yl(methyl)carbamoyl]phenyl]-5-(trifluoromethyl)pyrazole-3-carboxylate] yielded an EC50 of less than 1 µM.

With `CNC(=O)c1c(Cl)c(C)nn1-c1cccc(C(=O)N(C)c2ccc3c(c2)OCO3)c1` [compound 085, 2-[3-[1,3-benzodioxol-5-yl(methyl)carbamoyl]phenyl]-4-chloro-N,5-dimethyl-pyrazole-3-carboxamide] the EC50 was greater than 2 µM.

Work on `Cc1nn(-c2nccc(C(=O)N(C)c3ccc4c(c3)OCO4)n2)c(C)c1Cl` [compound 072, N-(1,3-Benzodioxol-5-yl)-2-(4-chloro-3,5-dimethyl-pyrazol-1-yl)-N-methyl-pyrimidine-4-carboxamide] yielded an EC50 greater than 2 µM.

With `CN(C(=O)c1cccc(-n2nc(C(F)(F)F)cc2-c2ccco2)c1)c1ccc2c(c1)OCO2` [compound 147, N-(1,3-Benzodioxol-5-yl)-3-[5-(2-furyl)-3-(trifluoromethyl)pyrazol-1-yl]-N-methyl-benzamide] the EC50 was less than 1 µM.

Work on `Cc1nn(-c2cccc(C(=O)N(C)c3ccc4c(c3)OCCN4)c2)c(C)c1Cl` [compound 036, 3-(4-Chloro-3,5-dimethyl-pyrazol-1-yl)-N-(3,4-dihydro-2H-1,4-benzoxazin-4-ium-7-yl)-N-methyl-benzamide 2,2,2-trifluoroacetate] yielded an EC50 greater than 2 µM.

With `O=C(O)c1ccc(OCc2c(Cl)c(C(F)(F)F)nn2-c2cccc(C(=O)Nc3ccc4c(c3)OC(F)(F)O4)c2)cc1` [compound 174, 4-[[4-Chloro-2-[3-[(2,2-difluoro-1,3-benzodioxol-5-yl)carbamoyl]phenyl]-5-(trifluoromethyl)pyrazol-3-yl]methoxy] benzoic acid] the EC50 was greater than 2 µM.

`Cc1nn(-c2cccc(C(=O)N(C)c3ccc4c(c3)OCO4)c2)c([C@@H](C)O)c1Cl` (racemic) [compound 114, N-(1,3-benzodioxol-5-yl)-3-[4-chloro-5-[(rac)-1-hydroxyethyl]-3-methyl-pyrazol-1-yl]-N-methyl-benzamide] gave an EC50 greater than 2 µM.

For `Cc1cc(C(=O)O)nn1-c1cccc(C(=O)N(C)c2ccc3c(c2)OCO3)c1` [compound 066, 1-[3-[1,3-Benzodioxol-5-yl(methyl)carbamoyl]phenyl]-5-methyl-pyrazole-3-carboxylic acid], the EC50 was greater than 2 µM.

Molecule `Cc1c(Cl)c(C(F)(F)F)nn1-c1cccc(C(=O)N(C)c2cc3c(cc2C(=O)O)OCO3)c1` [compound 179, 6-[[3-[4-chloro-5-methyl-3-(trifluoromethyl)pyrazol-1-yl]benzoyl]-methyl-amino]-1,3-benzodioxole-5-carboxylic acid] has an EC50 greater than 2 µM.

`CN(C(=O)c1cccc(-n2nc(C(F)(F)F)c(C#N)c2Oc2ccc(C(=O)O)cc2)c1)c1ccc2c(c1)OCO2` [compound 210, 4-[2-[3-[1,3-Benzodioxol-5-yl(methyl)carbamoyl]phenyl]-4-cyano-5-(trifluoromethyl)pyrazol-3-yl]oxybenzoic acid] gave an EC50 greater than 2 µM.

Molecule `CCN(C(=O)c1cccc(-n2nc(C)c(Cl)c2C)c1)c1ccc2c(c1)OC(F)(F)O2` [compound 019, 3-(4-Chloro-3,5-dimethyl-pyrazol-1-yl)-N-(2,2-difluoro-1,3-benzodioxol-5-yl)-N-ethyl-benzamide] has an EC50 of 1 to 2 µM.

`Cc1nn(-c2cccc(S(=O)(=O)N(C)c3ccc4c(c3)OC(F)(F)O4)c2)c(C)c1Cl` [compound 035, 3-(4-Chloro-3,5-dimethyl-pyrazol-1-yl)-N-(2,2-difluoro-1,3-benzodioxol-5-yl)-N-methyl-benzenesulfonamide] was tested, and the EC50 was greater than 2 µM.

`COC(=O)C12CC(COc3cc(C(F)(F)F)nn3-c3cccc(C(=O)N(C)c4ccc5c(c4)OC(F)(F)O5)c3)(C1)C2` [compound 254, Methyl 3-[[2-[3-[(2,2-difluoro-1,3-benzodioxol-5-yl)-methyl-carbamoyl]phenyl]-5-(trifluoromethyl)pyrazol-3-yl]oxymethyl]bicyclo[1.1.1]pentane-1-carboxylate] showed an EC50 of less than 1 µM.

`Cc1c(Cl)c(C(F)(F)F)nn1-c1cccc(C(=O)N(C)c2cc3c(cc2C#N)OCO3)c1` [compound 163, 3-[4-chloro-5-methyl-3-(trifluoromethyl)pyrazol-1-yl]-N-(6-cyano-1,3-benzodioxol-5-yl)-N-methyl-benzamide] showed an EC50 of less than 1 µM.

`Cc1nn(-c2cccc(C(=O)Nc3ccc4c(c3)CCCC4)c2)c(C)c1Cl` [Int-040] showed an EC50 greater than 2 µM.
